Data: ChEMBL document CHEMBL5113401, “Novel 1,3,4-oxadiazole chalcogen analogues: Synthesis and cytotoxic activity” (Eur J Med Chem, 2022)
The source made the active and inactive calls. No cut-off for these calls is given here.

Legend:
PC-3 [1] = assay: Induction of cell cycle arrest in human PC-3 cells assessed as accumulation of cells at S phase at 1 uM incubated for 12 hrs by FACS flow cytometry analysis (reference value: 35.06 +/- 1.36 %); format: functional
HeLa [2] = assay: Induction of apoptosis in human HeLa cells assessed as late apoptotic cells at 1 uM incubated for 24 hrs by Annexin V-FITC/7-AAD staining based flow cytometric analysis (reference value: 11.1 +/- 0.778 %); format: functional
PC-3 [3] = assay: Induction of cell cycle arrest in human PC-3 cells assessed as accumulation of cells at G1 phase at 1 uM incubated for 6 hrs by FACS flow cytometry analysis (reference value: 44.2 +/- 2.21 %); format: functional
HeLa [4] = assay: Induction of cell cycle arrest in human HeLa cells assessed as accumulation of cells at G2/M phase at 1 uM incubated for 6 hrs by FACS flow cytometry analysis (reference value: 12.66 +/- 0.88 %); format: functional
HeLa [5] = assay: Induction of cell cycle arrest in human HeLa cells assessed as accumulation of cells at G2/M phase at 1 uM incubated for 18 hrs by FACS flow cytometry analysis (reference value: 12.66 +/- 0.92 %); format: functional
HeLa [6] = assay: Induction of apoptosis in human HeLa cells assessed as dead cells at 1 uM incubated for 24 hrs by Annexin V-FITC/7-AAD staining based flow cytometric analysis (reference value: 0.6 +/- 0.707 %); format: functional
PC-3 [7] = assay: Inhibition of colony formation in human PC-3 cells at IC50 incubated for 2 weeks with culture medium replacement for every 3 days by crystal violet staining based analysis; format: functional, cell-based
HFF-1 = assay: Cytotoxicity against HFF-1 cells assessed as reduction in cell viability at 1 to 2 uM incubated for 48 hrs by XTT assay; format: toxicity, cell-based; conditions: human, hff-1, 48 h, dose 1-2 µM
Tubulin (Homo sapiens) [8] = molecular target: T1, Tubulin (Homo sapiens) (UniProt P68371+Q9H4B7+P0DPH7+P68366+Q13509+Q71U36+P04350+Q3ZCM7+P07437+P68363+Q9BQE3+Q6PEY2+Q13885+Q9BVA1+Q9BUF5); assay: Inhibition of tubulin polymerization in human HeLa cells assessed as aberrations in mitotic spindle and nucleus at 0.5 uM incubated for 6 hrs by DAPI staining based fluorescence microscopic analysis; format: cell-based
HeLa [9] = assay: Induction of apoptosis in human HeLa cells assessed as viable cells at 1 uM incubated for 24 hrs by Annexin V-FITC/7-AAD staining based flow cytometric analysis (reference value: 85.6 +/- 1.061%); format: functional; conditions: read-out: Activity
HeLa [10] = assay: Induction of cell cycle arrest in human HeLa cells assessed as accumulation of cells at G1 phase at 1 uM incubated for 6 hrs by FACS flow cytometry analysis (reference value: 69.94 +/- 1.71 %); format: functional
PC-3 [11] = assay: Induction of cell cycle arrest in human PC-3 cells assessed as accumulation of cells at G1 phase at 1 uM incubated for 12 hrs by FACS flow cytometry analysis (reference value: 44.2 +/- 2.01 %); format: functional
NB1 = assay: Cytotoxicity against human NB1 cells immortalized with hTERT plasmid assessed as reduction in cell viability at 1 to 2 uM incubated for 48 hrs by XTT assay; format: toxicity, cell-based; conditions: nb1, 48 h, dose 1-2 µM
PC-3 [12] = assay: Induction of cell cycle arrest in human PC-3 cells assessed as accumulation of cells at G2/M phase at 1 uM incubated for 12 hrs by FACS flow cytometry analysis (reference value: 20.74 +/- 1.95 %); format: functional
HeLa [13] = assay: Induction of apoptosis in human HeLa cells assessed as early apoptotic cells at 1 uM incubated for 24 hrs by Annexin V-FITC/7-AAD staining based flow cytometric analysis (reference value: 2.7 +/- 0.424 %); format: functional
HeLa [14] = assay: Antiproliferative activity against human HeLa cells assessed as inhibition of cell growth incubated for 48 hrs by XTT assay; format: functional, cell-based
HeLa [15] = assay: Induction of cell cycle arrest in human HeLa cells assessed as accumulation of cells at G1 phase at 1 uM incubated for 18 hrs by FACS flow cytometry analysis (reference value: 69.94 +/- 1.25 %); format: functional
MCF7 = assay: Antiproliferative activity against human MCF7 cells assessed as inhibition of cell growth incubated for 48 hrs by XTT assay; format: functional, cell-based; conditions: MCF7, 48 h
Tubulin (Homo sapiens) [16] = molecular target: T1, Tubulin (Homo sapiens); assay: Inhibition of tubulin polymerization in human HeLa cells assessed as abnormal microtubule network at 0.5 uM incubated for 6 hrs by DAPI staining based fluorescence microscopic analysis; format: cell-based
HeLa [17] = assay: Inhibition of colony formation in human HeLa cells at IC50 incubated for 2 weeks with culture medium replacement for every 3 days by crystal violet staining based analysis; format: functional, cell-based
HeLa [18] = assay: Induction of cell cycle arrest in human HeLa cells assessed as accumulation of cells at S phase at 1 uM incubated for 18 hrs by FACS flow cytometry analysis (reference value: 17.41 +/- 1.16 %); format: functional
PC-3 [19] = assay: Induction of cell cycle arrest in human PC-3 cells assessed as accumulation of cells at S phase at 1 uM incubated for 6 hrs by FACS flow cytometry analysis (reference value: 35.06 +/- 1.85 %); format: functional
PC-3 [20] = assay: Induction of cell cycle arrest in human PC-3 cells assessed as accumulation of cells at G2/M phase at 1 uM incubated for 6 hrs by FACS flow cytometry analysis (reference value: 20.74 +/- 1.93 %); format: functional
HeLa [21] = assay: Induction of cell cycle arrest in human HeLa cells assessed as accumulation of cells at S phase at 1 uM incubated for 6 hrs by FACS flow cytometry analysis (reference value: 17.41 +/- 0.96 %); format: functional
PC-3 [22] = assay: Antiproliferative activity against human PC-3 cells assessed as inhibition of cell growth incubated for 48 hrs by XTT assay; format: functional, cell-based; conditions: PC-3, 48 h
Tubulin (Homo sapiens) [23] = molecular target: T1, Tubulin (Homo sapiens); assay: Inhibition of tubulin polymerization in human HeLa cells assessed as irregular cell morphology at 0.5 uM incubated for 6 hrs by DAPI staining based fluorescence microscopic analysis

Row | IC50 (HeLa [14]) [nM] | IC50 (MCF7) [nM] | IC50 (PC-3 [22]) [nM] | SMILES | Activity (PC-3 [1]) [%] | Activity (HeLa [2]) [%] | Activity (PC-3 [3]) [%] | Activity (HeLa [4]) [%] | Activity (HeLa [5]) [%] | Activity (HeLa [6]) [%] | inhibition (PC-3 [7]) | Activity (HFF-1) | inhibition (Tubulin (Homo sapiens) [8]) | viability at 1 µM (HeLa [9]) [%] | Activity (HeLa [10]) [%] | Activity (PC-3 [11]) [%] | Activity (NB1) | Activity (PC-3 [12]) [%] | Activity (HeLa [13]) [%] | Activity (HeLa [15]) [%] | inhibition (Tubulin (Homo sapiens) [16]) | other results
1 | > 10000 | > 10000 | > 10000 | Cc1[nH]c2c(c1-c1nnc(-c3ccc(Cl)c(Cl)c3)[se]1)Cc1ccccc1-2 |  |  |  |  |  |  |  |  |  |  |  |  |  |  |  |  |  | 
2 | > 10000 | > 10000 | > 10000 | Cc1[nH]c2c(c1-c1nnc(-c3cccc(Cl)c3)s1)Cc1ccccc1-2 |  |  |  |  |  |  |  |  |  |  |  |  |  |  |  |  |  | 
3 | > 10000 | > 10000 | > 10000 | Cc1[nH]c2c(c1-c1nnc(-c3ccc(Cl)cc3)s1)Cc1ccccc1-2 |  |  |  |  |  |  |  |  |  |  |  |  |  |  |  |  |  | 
4 | > 10000 | > 10000 | > 10000 | COc1cc(-c2nnc(-c3c(C)[nH]c4c3Cc3ccccc3-4)s2)cc(OC)c1OC |  |  |  |  |  |  |  |  |  |  |  |  |  |  |  |  |  | 
5 | > 10000 | > 10000 | > 10000 | Cc1[nH]c2c(c1-c1nnc(-c3ccc(Cl)c(Cl)c3)s1)Cc1ccccc1-2 |  |  |  |  |  |  |  |  |  |  |  |  |  |  |  |  |  | 

Row | SMILES | IC50 (HeLa [14]) [nM] | IC50 (MCF7) [nM] | IC50 (PC-3 [22]) [nM] | Activity (PC-3 [1]) [%] | Activity (HeLa [2]) [%] | Activity (PC-3 [3]) [%] | Activity (HeLa [4]) [%] | Activity (HeLa [5]) [%] | Activity (HeLa [6]) [%] | inhibition (PC-3 [7]) | Activity (HFF-1) | inhibition (Tubulin (Homo sapiens) [8]) | viability at 1 µM (HeLa [9]) [%] | Activity (HeLa [10]) [%] | Activity (PC-3 [11]) [%] | Activity (NB1) | Activity (PC-3 [12]) [%] | Activity (HeLa [13]) [%] | Activity (HeLa [15]) [%] | inhibition (Tubulin (Homo sapiens) [16]) | other results
6 | Cc1[nH]c2c(c1-c1nnc(-c3ccccc3Cl)s1)Cc1ccccc1-2 | 145 | 468 | 176 | 5.55 | 17.4 | 11.13 | 3.84 | 88.99 | 5.9 | Active | Non-Toxic | Active | 44.8 | 27.25 | 1.71 | Non-Toxic | 92.74 | 31.9 | 1.49 | Active | inhibition (HeLa [17]): Active; Activity (HeLa [18]): 9.52%; Activity (PC-3 [19]): 51.2%; Activity (PC-3 [20]): 37.68%; Activity (HeLa [21]): 68.91%; inhibition (Tubulin (Homo sapiens) [23]): Active
7 | Cc1[nH]c2c(c1-c1nnc(-c3ccccc3)[se]1)Cc1ccccc1-2 | 9 | 176 | 72 | 6.68 | 19.7 | 8.76 | 5.51 | 88.58 | 3.4 | Active | Non-Toxic | Active | 68 | 24.24 | 1.01 | Non-Toxic | 92.31 | 8.9 | 1.06 | Active | inhibition (HeLa [17]): Active; Activity (HeLa [18]): 10.36%; Activity (PC-3 [19]): 56.26%; Activity (PC-3 [20]): 34.99%; Activity (HeLa [21]): 70.25%; inhibition (Tubulin (Homo sapiens) [23]): Active
8 | Cc1[nH]c2c(c1-c1nnc(-c3ccccc3)s1)Cc1ccccc1-2 | 324 | 555 | 380 | 23.79 | 22.7 | 44.45 | 33.03 | 56.51 | 4.3 | Active | Non-Toxic | Active | 63.8 | 26.59 | 15.37 | Non-Toxic | 60.84 | 9.2 | 22.86 | Active | inhibition (HeLa [17]): Active; Activity (HeLa [18]): 20.62%; Activity (PC-3 [19]): 21.51%; Activity (PC-3 [20]): 34.04%; Activity (HeLa [21]): 40.38%; inhibition (Tubulin (Homo sapiens) [23]): Active
